Source: patent EP4653017A1, “ANTIBODY-DRUG CONJUGATE AND USE THEREOF” (Tyligand Bioscience (Shanghai) Limited, priority 2023, dated 2024)
Where a name gives a salt, the structure may show the parent alone.

Legend:
[1] = system: H22; assay: Inhibition of tumor cell line proliferation (Table 3), H22; format: cell-based; settings: H22, Mouse hepatoma cells
[2] = system: human gastric cancer NCI-N87 cells; assay: Inhibition of NCI-N87 cell proliferation (CTG assay); format: cell-based
Procedure: NCI-N87 cells (Cell Bank of Chinese Academy of Sciences, Cat. No. #TCHu130) were cultured at 37°C, 5% CO2, 95% humidity in RPMI 1640 + 10% FBS (ExCell Bio, Cat. No. #FND500), the cells in logarithmic growth phase were harvested and counted, and cell viability was measured using Countstar automated cell counter based on classical trypan blue staining principle to ensure that the cell viability was above 90%. The cell concentration was adjusted, 135 µL of cell suspension was added into 96 well clear flat bottom black wall plate (Corning, Cat. No. #3904), 2000/well, and the cells was incubated in 96 well plate at 37°C and 5% CO2.
The cells in the 96 well plates that had been dosed were incubated at 37°C, 5% CO2 for 5 days before performing CTG assay. the plate was equilibrated to room temperature for 30 min and CTG Reagent (CellTiter-Glo® Luminescent Cell Viability Assay (Promega, Cat. No. #G7573) was melt, 50 µL of CTG Solution was added to each well, and shaked on an orbital shaker for 2 min to lyse the cells. The plate was left at room temperature for 10 min to stabilize the cold light signal and the cold light value was read (EnVision® Multifunctional Plate Reader, PerkinElmer#2105). [formula]
GraphPad Prism software was used to analyze the data, and Dose-response-inhibition equation was used to fit the data to obtain the dose-response curve from which IC50 value was calculated. […]

[3] = system: CT26 cells; assay: Inhibition of CT26 cell proliferation (CellTiter-Glo); format: cell-based, mouse
Procedure: CT26 cells are a mouse colorectal cancer cell line. In this experiment, CellTiter-Glo Luminescence Cell Viability Assay kit from Promega was used to assess the inhibitory activity of the compounds on CT26 cell proliferation.
When CT26 cells (ATCC #CRL-2638) were revived, the cryovial was rapid shaken in a 37°C water bath to thaw with 1 min. The thawed cell suspension was mixed well with DMEM medium (GE Company, Cat. No. #SH30243.01) containing 10% FBS (GIBCO, Cat. No. #10099-141), centrifuged at 1000 rpm for 5 min, and the supernatant was discarded. The cell pellet was resuspended in 5 mL of complete medium (DMEM medium containing 10% FBS), placed in a cell culture flask with a bottom area of 25 cm^2, and cultured in a cell incubator at 37°C, 5% CO2, and 95% humidity. Passage was performed when the confluence rate of cells reached 70%~80%. Referring to the cell passage method at plating, all cells in the flask were transferred to a 15 mL centrifuge tube, centrifuged at 1000 rpm for 5 minutes, and the supernatant was discarded. The cell pellet was resuspended in 5 mL of new complete medium, 1 mL was placed in a cell culture flask with a bottom area of 25 cm^2, and 4 mL of fresh complete medium was added to continue the culture. Plating was performed when the cell confluence rate of cells reached 70% to 80% again. Referring to the cell passage method at plating, 1/5 of the cell suspension was maintained and the remaining 4/5 of the cell suspension was placed in a 15 mL centrifuge tube. The cells were centrifuged, the old medium was discarded, the cells was washed once with DMEM medium (without serum), and centrifuged to remove the supernatant. Cells were resuspended with DMEM medium (without serum). […]. A cell suspension at a density of 1.1 x 10^4 viable cells/mL was prepared using DMEM medium (without serum) and 90 µL of the cell suspension was added to 96-well clear flat-bottom black-walled cell culture plate wells (Corning, Cat. No. #3603) to yield a cell density of 1000 viable cells/well in the plate. A control group without cells, without compounds, and with complete medium only (i.e., culture medium control) was set up, and a control group without compounds and with cells (i.e., cell control) was set up. The plates were incubated overnight in a cell incubator.
A DMSO stock solution of 10 mM compound was first serially diluted at a 3.16-fold dilution ratio with DMSO (Sigma, Cat. No. #D2650) to a ninth concentration and a tenth concentration of DMSO control without compound was set. DMSO solutions containing different concentrations of the compound were then diluted a 10-fold dilution ratio with PBS (Solarbio company, Cat. No. #P1020) to achieve a DMSO content of 10% in each concentration of the compound solution. Finally, 10 µL of the above solution was added to the corresponding cell culture plate to achieve a starting concentration of 100 µM compound, a 3.16-fold dilution ratio of adjacent concentrations, and a DMSO content of 1% in the cell culture plate. The plates were maintained in a cell incubator for an additional 120 hours.
After 120 hours, the CellTiter-Glo reagent (Promega, Cat. No. #G7572) was thawed and the plate was equilibrated at room temperature for 30 min. Then, 100 µL CellTiter-Glo was added to each well of the plate and shaken on an orbital shaker for 5 min to fully lyse the cells. The plate was placed at room temperature for 20 min to stabilize the cold light signal, and the cold light value of each well was scanned with a multifunctional microplate reader (Molecular Devices, Spectramax M3) at full wavelength.
The compound of the present invention and ADU-S100 (MCE, Cat. No. #HY12885A) were used as controls: Clofarabine (Wuhu Huaren Technology, Cat. No. #HR-00701002), Cladribine (CSNpharm, Cat. No. #CSN10004), Gemcitabine Hydrochloride (Shaoyuan, Cat. No. #SY014538), Gemcitabine Prodrug LY2334737 (home-made). […]

Nc1nc2c(ncn2[C@@H]2O[C@@H]3CO[P@@](=O)(S)O[C@H]4[C@H](F)[C@H](n5cnc6c(N)nc(Cl)nc65)O[C@@H]4CO[P@@](=O)(S)O[C@@H]2[C@@H]3O)c(=O)[nH]1 [CDN-3, (2',3')-cyclo-(Rp,Rp)-[2'-O-thiophosphodiester-guanosine]-[3'-O-thiophosphodiester-2-chloro-2'-deoxy-2'-fluoro-beta-adenosine]diammonium salt]
IC50 [1]: 982 nM
inhibitory effects on NCI-N87 cell proliferation (in words) [2]: strong inhibitory effects
IC50 ([2]; Homo sapiens, 120 h, NCI-N87, 5 days incubation, top concentration 600 nM): 209 nM
IC50 ([3]; Mus musculus, CT26, 120 h, read-out: CT-26 activity): < 1000 nM
inhibitory ability on growth of CT26 tumor cells in vitro (in words) ([3]; superior to ADU-S100): particularly significant inhibitory ability
